Source: ChEMBL document CHEMBL5226340, “Chemical Biology of Sortase A Inhibition: A Gateway to Anti-infective Therapeutic Agents” (J Med Chem, 2021)
≈ marks a conversion by molar mass, not a printed value.

What was measured:
Sortase A [1] = biological target: T1, Sortase A (Staphylococcus aureus, UniProt Q9S446); experiment: Inhibition of Staphylococcus aureus SrtA catalytic domain (60 to 206 residues) using Abz-LPETGDap(Dnp)-NH2 as substrate preincubated for 1 hr followed by substrate addition and measured immediately by FRET assay
T1 sequence (Q9S446 whole entry): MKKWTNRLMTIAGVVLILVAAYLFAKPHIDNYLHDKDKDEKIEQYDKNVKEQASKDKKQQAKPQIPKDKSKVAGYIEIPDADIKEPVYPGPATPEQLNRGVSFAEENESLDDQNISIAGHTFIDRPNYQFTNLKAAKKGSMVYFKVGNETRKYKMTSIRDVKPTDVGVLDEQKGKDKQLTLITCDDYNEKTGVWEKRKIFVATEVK

[2] = biological target: T2, Sortase A (Staphylococcus aureus) (UniProt Q9S446); experiment: Binding affinity to Staphylococcus aureus SrtA assessed as kinact/ki
T2 sequence (whole entry): T1 sequence (Q9S446 whole entry)

Sortase A [3] = biological target: T1, Sortase A; experiment: Inhibition of recombinant Staphylococcus aureus ATCC 6538p SrtA expressed in Escherichia coli TOP10 using Dabcyl-QALPETGEE-Edans as substrate incubated for 1 hr by fluorometric analysis
Sortase A [4] = biological target: T1, Sortase A; experiment: Inhibition of C-terminal 6His-tagged recombinant Staphylococcus aureus SrtA with 1 to 59 residues truncated from N-terminus expressed in Escherichia coli BL21 (DE3) using dabcyl-QALPETGEE-edans as substrate preincubated for 1 hr followed by substrate addition and measured for 1 hr by FRET assay
Staphylococcus aureus = experiment: Antibacterial activity against Staphylococcus aureus; format: functional
Sortase A [5] = biological target: T1, Sortase A; experiment: Inhibition of Staphylococcus aureus SrtA
Sortase A [6] = biological target: T1, Sortase A; experiment: Inhibition of Staphylococcus aureus SrtA using EDANS-Dabcyl as substrate by FRET assay
Sortase A [7] = biological target: T1, Sortase A; experiment: Inhibition of Staphylococcus aureus SrtA (60 to 206 residues) using Abz-LPETG-Dap(Dnp)-NH2 as substrate incubated for 1 hr by FRET assay

Ratio [2]	SMILES	MIC (Staphylococcus aureus)	further results
	O=c1c(O)c(-c2cc(O)c(O)c(O)c2)oc2cc(O)cc(O)c12 [MYRICETIN]		IC50 (Sortase A [3]): 44 µM
	CC(=O)/C(=N/Nc1ccc(Cl)c(Cl)c1)C(=O)O	> 270 µM	IC50 (Sortase A [4]): 50 µM
	O=C(O)/C=C/c1ccc(O)c(O)c1 [CAFFEIC ACID]	> 5750 µM	IC50 (Sortase A [5]): 860 µM
	O=c1c(OCCO)c(SSc2cnn(-c3cccc(F)c3)c(=O)c2OCCO)cnn1-c1cccc(F)c1		IC50 (Sortase A [1]): 0.41 µM
6.39 10^4/M/min	CCSSc1ccccc1C(=O)NCC(=O)N(C1CCCCC1)C1CCCCC1		
	COc1cc(/C=C/C(=O)CC(=O)/C=C/c2ccc(O)cc2)ccc1O	> 543 µM	IC50 (Sortase A [6]): 70.3 µM
	CCOc1c(SSc2cnn(-c3cccc(F)c3)c(=O)c2OCC)cnn(-c2cccc(F)c2)c1=O		IC50 (Sortase A [1]): 0.16 µM
	CCOc1c(S)cnn(-c2ccccc2)c1=O		IC50 (Sortase A [1]): 35 µM
	COc1c(O)c2c(c3c1O[C@@]1(O)C(C)(C)[C@H](C)O[C@@]31O)C(=O)C(C)=CC2=O		IC50 (Sortase A [5]): 23.6 µM
	O=C(/C=C/c1ccc(O)cc1)CC(=O)/C=C/c1ccc(O)cc1 [BISDEMETHOXYCURCUMIN]	> 543 µM	IC50 (Sortase A [6]): 103 µM
0.7 10^3/M/min	O=c1cc(CO)oc(C(Nc2ccccn2)c2ccsc2)c1O (stereo unspecified)	> 1550 µM	
	O=c1c(OCCO)c(SSc2cnn(-c3ccccc3)c(=O)c2OCCO)cnn1-c1ccccc1		IC50 (Sortase A [1]): 0.22 µM
6.14 10^4/M/min	CCSSc1ccccc1C(=O)NCC(=O)Nc1ccc(F)cc1		
	COc1cc(/C=C/C(=O)CC(=O)/C=C/c2ccc(O)c(OC)c2)ccc1O [CURCUMIN]	> 543 µM	
8.21 10^4/M/min	CCSSc1ccccc1C(=O)N[C@H](CC(=O)O)C(=O)Nc1cccc(Oc2ccccc2)c1		
	CCn1nc(C)cc1C(=O)/C(=N/Nc1ccc(Cl)c(Cl)c1)C(=O)O		IC50 (Sortase A [4]): > 200 µM
	O=C(O)COc1ccccc1C1Nc2cccc3cccc(c23)N1		IC50 (Sortase A [7]): 47.2 µM

Ratio [2]	SMILES	MIC (Staphylococcus aureus)	further results
2.4 10^3/M/min	O=c1cc(CO)oc(C(Nc2ccccn2)c2cccc(F)c2)c1O (stereo unspecified)	> 1580 µM	
	CC(=O)/C(=N/Nc1ccc([N+](=O)[O-])cc1)C(=O)O	> 270 µM	IC50 (Sortase A [4]): 57 µM
	O=C(/C=C/c1ccc(O)c(O)c1)O[C@@H]1C[C@](O)(C(=O)O)C[C@@H](O)[C@H]1O [CHLOROGENIC ACID]	2900 µM (≈ 1030 µg/mL)	IC50 (Sortase A [6]): 95.6 µM
	Clc1ccc(C2Nc3cccc4cccc(c34)N2)cc1		IC50 (Sortase A [7]): 89 µM
	O=C1N[C@H](c2c[nH]c3cc(Br)ccc23)CN=C1c1c[nH]c2ccccc12		IC50 (Sortase A [6]): 83.2 µM
1.7 10^3/M/min	O=c1cc(CO)oc(C(Nc2ccccn2)c2ccc(C(F)(F)F)cc2)c1O (stereo unspecified)	> 1300 µM	
	O=[N+]([O-])c1ccc(C2Nc3cccc4cccc(c34)N2)cc1		IC50 (Sortase A [7]): 80 µM
7.13 10^4/M/min	CCSSc1ccccc1C(=O)NCC(=O)NCC1CCCCC1		
1.8 10^3/M/min	COc1ccc(C(Nc2ccccn2)c2oc(CO)cc(=O)c2O)cc1 (stereo unspecified)	> 1440 µM	
1.4 10^3/M/min	O=c1cc(CO)oc(C(Nc2ccccn2)c2ccc(F)cc2)c1O (stereo unspecified)	> 1580 µM	
	COc1cc(/C=C/C(=O)O)ccc1O [FERULATE]	> 5750 µM	IC50 (Sortase A [5]): 1320 µM
7.24 10^4/M/min	CCSSc1ccccc1C(=O)NCC(=O)Nc1cccc(Oc2ccccc2)c1		
	COc1ccc(-c2cc(=O)c3c(O)cc(O)cc3o2)cc1 [ACACETIN]	> 3600 µM	IC50 (Sortase A [5]): 128 µM
	CCOc1c(SSc2cnn(-c3cccc(OC)c3)c(=O)c2OCC)cnn(-c2cccc(OC)c2)c1=O		IC50 (Sortase A [1]): 0.62 µM
	O=c1c(OCCCO)c(SSc2cnn(-c3ccccc3)c(=O)c2OCCCO)cnn1-c1ccccc1		IC50 (Sortase A [1]): 0.84 µM
	O=c1c(O)c(-c2ccc(O)c(O)c2)oc2cc(O)cc(O)c12 [QUERCETIN]		IC50 (Sortase A [3]): 52.7 µM
	C[C@@H]1O[C@@H](OC2=C(c3ccc(O)c(O)c3)Oc3cc(O)cc(O)c3[C@@H]2O)[C@H](O)[C@H](O)[C@H]1O		IC50 (Sortase A [6]): 71.8 µM

SMILES	Ratio [2]	MIC (Staphylococcus aureus)	further results
O=c1c(OCCCO)c(SSc2cnn(-c3cccc(F)c3)c(=O)c2OCCCO)cnn1-c1cccc(F)c1	1.8 10^4/M/min		IC50 (Sortase A [1]): 0.02 µM
CCOc1c(SSc2cnn(-c3cccc(C(=N)N)c3)c(=O)c2OCC)cnn(-c2cccc(C(=N)N)c2)c1=O	3.6 10^4/M/min		IC50 (Sortase A [1]): 0.54 µM
